Values joined by “and” are separate entries in the source; they are usually repeats but may differ in a detail not shown here. Equal values may be shown once. Inconclusive results and toxic doses are left out. How the source made its calls: active means survival T/C of 150% or more; inactive means T/C below 125% in these data.
System: CD2F1 mice, L1210 leukemia ip, survival T/C
Experiment: NCI In Vivo Anticancer Drug Screen. Data for tumor model L1210 Leukemia (intraperitoneal) in CD2F1 (CDF1) mice
Conditions: endpoint: mean survival time, higher = longer survival
In short: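 Each value reflects a quotient of treated over vehicle control outcomes in mice with a transplanted tumor.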

[1] = dose: 25.0 mg/kg/injection, schedule: Q01DX009 (ip), vehicle: Klucel (hydroxypropylcellulose) (HPC)
[2] = dose: 12.5 mg/kg/injection, schedule: Q01DX009 (ip), vehicle: saline with Tween-80
[3] = dose: 25.0 mg/kg/injection, schedule: Q01DX009 (ip), vehicle: saline with Tween-80
[4] = dose: 50.0 mg/kg/injection, schedule: Q01DX009 (ip), vehicle: saline with Tween-80
[5] = dose: 100.0 mg/kg/injection, schedule: Q01DX001 (ip), vehicle: saline with Tween-80
[6] = dose: 100.0 mg/kg/injection, schedule: Q01DX009 (ip), vehicle: saline with Tween-80
[7] = dose: 200.0 mg/kg/injection, schedule: Q01DX001 (ip), vehicle: saline with Tween-80
[8] = dose: 200.0 mg/kg/injection, schedule: Q01DX009 (ip), vehicle: saline with Tween-80
[9] = dose: 400.0 mg/kg/injection, schedule: Q01DX001 (ip), vehicle: saline with Tween-80
[10] = dose: 400.0 mg/kg/injection, schedule: Q01DX009 (ip), vehicle: saline with Tween-80
[11] = dose: 100.0 mg/kg/injection, schedule: Q01DX001 (ip), vehicle: Klucel (hydroxypropylcellulose) (HPC)
[12] = dose: 100.0 mg/kg/injection, schedule: Q04DX003 (ip), vehicle: saline with Tween-80
[13] = dose: 200.0 mg/kg/injection, schedule: Q04DX003 (ip), vehicle: saline with Tween-80
[14] = dose: 400.0 mg/kg/injection, schedule: Q04DX003 (ip), vehicle: saline with Tween-80
[15] = dose: 100.0 mg/kg/injection, schedule: Q01DX009 (ip), vehicle: saline

Measured: T/C

NCc1cccn1OCc1ccccc1
inactive: [1] 96 % of control | dose: 50.0 mg/kg/injection, schedule: Q01DX009 (ip), vehicle: Klucel (hydroxypropylcellulose) (HPC) 96 % of control | dose: 100.0 mg/kg/injection, schedule: Q01DX009 (ip), vehicle: Klucel (hydroxypropylcellulose) (HPC) 107 % of control

CCOC(=O)C(C)(C)Oc1ccc(Cl)cc1
inactive: [2] 100 % of control and 105 % of control | [3] 97 % of control and 98 % of control | [4] 103 % of control and 104 % of control | [5] 94 % of control | [6] 100 % of control and 101 % of control and 103 % of control | [7] 91 % of control | [8] 100 % of control and 101 % of control and 102 % of control | [9] 94 % of control | [10] 100 % of control and 104 % of control and 109 % of control

CCOC(=O)C1(C(=O)OCC)C(C)CC2Nc3ccccc3C(=O)N21 (stereo unspecified)
inactive: [11] 100 % of control | dose: 200.0 mg/kg/injection, schedule: Q01DX001 (ip), vehicle: Klucel (hydroxypropylcellulose) (HPC) 96 % of control | dose: 400.0 mg/kg/injection, schedule: Q01DX001 (ip), vehicle: Klucel (hydroxypropylcellulose) (HPC) 92 % of control

CCCCCC(C)O[Si](C)OCC (stereo unspecified)
inactive: dose: 100.0 mg/kg/injection, schedule: Q04DX003 (ip), vehicle: saline 96 % of control | dose: 200.0 mg/kg/injection, schedule: Q04DX003 (ip), vehicle: saline 106 % of control | dose: 400.0 mg/kg/injection, schedule: Q04DX003 (ip), vehicle: saline 108 % of control

CC(=O)Nc1ccc(C(C)=O)cc1[N+](=O)[O-]
inactive: [6] 91 % of control | [12] 101 % of control | [8] 95 % of control | [13] 100 % of control | [10] 95 % of control | [14] 100 % of control

O=c1[nH]c2c(c(=O)n1-c1ccccc1)CCO2
inactive: dose: 100.0 mg/kg/injection, schedule: Q01DX001 (ip), vehicle: saline 98 % of control | dose: 200.0 mg/kg/injection, schedule: Q01DX001 (ip), vehicle: saline 91 % of control | dose: 400.0 mg/kg/injection, schedule: Q01DX001 (ip), vehicle: saline 98 % of control

Cc1c2ccccc2c(CN2CC(O)CC2C(=O)O)c2ccc3ccccc3c12 (stereo unspecified)
inactive: [12] 102 % of control | [13] 100 % of control | [14] 87 % of control

COc1cc2ccc(/C(C)=N/OC(C)=O)cc2cc1OC
inactive: [6] 100 % of control | [8] 102 % of control | [10] 97 % of control

O=C(O)C(F)(F)F.O=C(O)C(F)(F)F.O=C(O)C(F)(F)F.O=C(O)C(F)(F)F.[Rh].[Rh]
inactive: dose: 12.5 mg/kg/injection, schedule: Q01DX009 (ip), vehicle: saline 107 % of control | dose: 25.0 mg/kg/injection, schedule: Q01DX009 (ip), vehicle: saline 115 % of control | dose: 50.0 mg/kg/injection, schedule: Q01DX009 (ip), vehicle: saline 118 % of control | [15] 107 % of control

O=C(O)c1ccccc1C(=O)c1ccc(CBr)cc1
inactive: dose: 6.25 mg/kg/injection, schedule: Q04DX003 (ip), vehicle: saline with Tween-80 93 % of control | dose: 12.5 mg/kg/injection, schedule: Q04DX003 (ip), vehicle: saline with Tween-80 101 % of control | dose: 25.0 mg/kg/injection, schedule: Q04DX003 (ip), vehicle: saline with Tween-80 101 % of control

O=C1N(c2ccccc2)SN2C3C=CC(C4CC43)N12 (stereo unspecified)
inactive: dose: 12.5 mg/kg/injection, schedule: Q04DX002 (ip), vehicle: saline with Tween-80 114 % of control | dose: 25.0 mg/kg/injection, schedule: Q04DX002 (ip), vehicle: saline with Tween-80 105 % of control

O=C1c2ccccc2C(Cl)=C(Cl)C1(Cl)Cl
inactive: [2] 92 % of control | [3] 101 % of control | [4] 101 % of control | [12] 96 % of control | [14] 100 % of control

NC(=O)COS(=O)(=O)O
inactive: [15] 104 % of control | dose: 200.0 mg/kg/injection, schedule: Q01DX009 (ip), vehicle: saline 104 % of control | dose: 400.0 mg/kg/injection, schedule: Q01DX009 (ip), vehicle: saline 108 % of control

Cc1ccc(Nc2nc(N)nc3nc(N)c(C(N)=O)nc23)cc1C
inactive: dose: 12.5 mg/kg/injection, schedule: Q04DX002 (ip), vehicle: Klucel (hydroxypropylcellulose) (HPC) 91 % of control | dose: 25.0 mg/kg/injection, schedule: Q04DX002 (ip), vehicle: Klucel (hydroxypropylcellulose) (HPC) 86 % of control | dose: 50.0 mg/kg/injection, schedule: Q04DX002 (ip), vehicle: Klucel (hydroxypropylcellulose) (HPC) 91 % of control

Cc1ccc(S(=O)(=O)OC2COC3C(OS(=O)(=O)c4ccc(C)cc4)COC23)cc1 (stereo unspecified)
inactive: [5] 93 % of control | [7] 89 % of control | [9] 88 % of control

O=C1CC(=O)C(Br)=C1Br
inactive: dose: 0.75 mg/kg/injection, schedule: Q01DX009 (ip), vehicle: saline with Tween-80 95 % of control | dose: 1.5 mg/kg/injection, schedule: Q01DX009 (ip), vehicle: saline with Tween-80 95 % of control | dose: 3.0 mg/kg/injection, schedule: Q01DX009 (ip), vehicle: saline with Tween-80 90 % of control

CCOC(=O)C(=O)c1c(N)n(C)c(=O)n(C)c1=O
inactive: dose: 6.25 mg/kg/injection, schedule: Q01DX009 (ip), vehicle: Klucel (hydroxypropylcellulose) (HPC) 112 % of control | dose: 12.5 mg/kg/injection, schedule: Q01DX009 (ip), vehicle: Klucel (hydroxypropylcellulose) (HPC) 87 % of control | [1] 102 % of control

O=C1c2ccccc2C(C(O)(C(F)(F)F)C(F)(F)F)c2ccccc21
inactive: [2] 100 % of control | [3] 98 % of control | [4] 96 % of control

O=C(O)c1c[nH]c2ccc([N+](=O)[O-])cc2c1=O
inactive: dose: 50.0 mg/kg/injection, schedule: Q01DX001 (ip), vehicle: Klucel (hydroxypropylcellulose) (HPC) 104 % of control | [11] 120 % of control | [5] 93 % of control | [7] 89 % of control | [9] 86 % of control

CCO
inactive: dose: 50.0 mg/kg/injection, schedule: Q03HX024 (ip), vehicle: saline 100 % of control | dose: 100.0 mg/kg/injection, schedule: Q03HX024 (ip), vehicle: saline 102 % of control | dose: 125.0 mg/kg/injection, schedule: Q01DX009 (ip), vehicle: saline 103 % of control | dose: 200.0 mg/kg/injection, schedule: Q03HX024 (ip), vehicle: saline 97 % of control | dose: 250.0 mg/kg/injection, schedule: Q01DX009 (ip), vehicle: saline 100 % of control | dose: 400.0 mg/kg/injection, schedule: Q03HX024 (ip), vehicle: saline 102 % of control | dose: 500.0 mg/kg/injection, schedule: Q01DX001 (ip), vehicle: saline 109 % of control | dose: 500.0 mg/kg/injection, schedule: Q01DX009 (ip), vehicle: saline 105 % of control | dose: 1000.0 mg/kg/injection, schedule: Q01DX001 (ip), vehicle: saline 108 % of control | dose: 1000.0 mg/kg/injection, schedule: Q01DX009 (ip), vehicle: saline 103 % of control | dose: 2000.0 mg/kg/injection, schedule: Q01DX001 (ip), vehicle: saline 103 % of control | dose: 4000.0 mg/kg/injection, schedule: Q01DX001 (ip), vehicle: saline 111 % of control

CC(C)CCCCN(CCCCC(C)C)CC(O)c1cc2c(c3ccccc13)CCCC2 (stereo unspecified)
inactive: [5] 94 % of control | [7] 97 % of control | [9] 102 % of control

N#CCCCCN=[N+]=[N-]
inactive: dose: 75.0 mg/kg/injection, schedule: Q01DX001 (ip), vehicle: saline 97 % of control | dose: 150.0 mg/kg/injection, schedule: Q01DX001 (ip), vehicle: saline 103 % of control

Cc1ccc(NC(=O)OCCOc2ccc(-c3ccccc3)cc2)cc1[N+](=O)[O-]
inactive: [4] 98 % of control | [6] 98 % of control | [8] 94 % of control

CC(=O)Nc1ccccc1OC(=O)c1ccccc1
inactive: [4] 97 % of control | [6] 97 % of control | [12] 101 % of control | [8] 97 % of control | [13] 95 % of control

O=C1c2ccccc2C2c3[nH]c4ccccc4c3CCN12 (stereo unspecified)
inactive: dose: 100.0 mg/kg/injection, schedule: Q01DX009 (ip), vehicle: saline sonified 97 % of control | [12] 87 % of control | dose: 200.0 mg/kg/injection, schedule: Q01DX009 (ip), vehicle: saline sonified 96 % of control | [13] 95 % of control | dose: 400.0 mg/kg/injection, schedule: Q01DX009 (ip), vehicle: saline sonified 97 % of control | [14] 93 % of control

Source: PubChem BioAssay AID256 (DTP/NCI, 2004)
